Test results reported in ChEMBL document CHEMBL3407340, “Synthesis, radiolabeling and evaluation of novel 4-oxo-quinoline derivatives as PET tracers for imaging cannabinoid type 2 receptor” (Eur J Med Chem, 2015).

Columns and labels:
[1] = Biodistribution in Wistar rat urine at 5 to 10 MBq, iv after 15 mins by gamma counting analysis; type: ADME, organism-based; conditions: in vivo, 0.25 h
Rattus norvegicus [2] = assay: Biodistribution in Wistar rat fat at 5 to 10 MBq, iv after 15 mins by gamma counting analysis in presence of GW405883; type: ADME, organism-based, Adipose tissue; conditions: in vivo, 0.25 h
[3] = Drug metabolism in Wistar rat plasma assessed as parent compound remaining at 115 to 163 MBq, iv after 10 mins; type: ADME, organism-based; conditions: read-out: Stability
Rattus norvegicus [4] = assay: Biodistribution in Wistar rat testis at 5 to 10 MBq, iv after 15 mins by gamma counting analysis; type: ADME, organism-based; conditions: in vivo, 0.25 h
Bone [5] = assay: Biodistribution in Wistar rat bone at 5 to 10 MBq, iv after 15 mins by gamma counting analysis in presence of GW405883; type: ADME, organism-based, Bone element; conditions: in vivo, 0.25 h
Lung [6] = assay: Biodistribution in Wistar rat lung at 5 to 10 MBq, iv after 15 mins by gamma counting analysis; type: ADME, organism-based; conditions: in vivo, 0.25 h
Hippocampus [7] = assay: Drug uptake in LPS-treated mouse hippocampus at 10 to 18 MBq, iv by PET imaging analysis; type: ADME, organism-based; conditions: in vivo
Heart [8] = assay: Biodistribution in Wistar rat heart at 5 to 10 MBq, iv after 15 mins by gamma counting analysis; type: ADME, organism-based; conditions: in vivo, 0.25 h
Blood [9] = assay: Biodistribution in Wistar rat blood at 5 to 10 MBq, iv after 15 mins by gamma counting analysis in presence of GW405883; type: ADME, organism-based; conditions: in vivo, 0.25 h
Muscle tissue [10] = assay: Biodistribution in Wistar rat muscle at 5 to 10 MBq, iv after 15 mins by gamma counting analysis in presence of GW405883; type: ADME, organism-based; conditions: in vivo, 0.25 h
Brain [11] = assay: Drug uptake in LPS-treated mouse whole brain at 10 to 18 MBq, iv by PET imaging analysis; type: ADME, organism-based; conditions: in vivo
Adrenal gland [12] = assay: Biodistribution in Wistar rat adrenal gland at 5 to 10 MBq, iv after 15 mins by gamma counting analysis; type: ADME, organism-based; conditions: in vivo, 0.25 h
Small intestine [13] = assay: Biodistribution in Wistar rat small intestine at 5 to 10 MBq, iv after 15 mins by gamma counting analysis; type: ADME, organism-based; conditions: in vivo, 0.25 h
Rattus norvegicus [14] = assay: Biodistribution in Wistar rat thyroid gland at 5 to 10 MBq, iv after 15 mins by gamma counting analysis; type: ADME, organism-based; conditions: in vivo, 0.25 h
Blood [15] = assay: Biodistribution in Wistar rat blood at 5 to 10 MBq, iv after 15 mins by gamma counting analysis; type: ADME, organism-based; conditions: in vivo, 0.25 h
Hippocampus [16] = assay: Drug uptake in LPS-treated mouse hippocampus at 10 to 18 MBq, iv by PET imaging analysis in presence of […]; type: ADME, organism-based; conditions: in vivo
Plasma [17] = assay: Stability in human plasma after 40 mins; type: ADME, cell-free
Pancreas [18] = assay: Biodistribution in Wistar rat pancreas at 5 to 10 MBq, iv after 15 mins by gamma counting analysis; type: ADME, organism-based; conditions: in vivo, 0.25 h
Bone [19] = assay: Biodistribution in Wistar rat bone at 5 to 10 MBq, iv after 15 mins by gamma counting analysis; type: ADME, organism-based, Bone element; conditions: in vivo, 0.25 h
Small intestine [20] = assay: Biodistribution in Wistar rat small intestine at 5 to 10 MBq, iv after 15 mins by gamma counting analysis in presence of GW405883; type: ADME, organism-based; conditions: in vivo, 0.25 h
Rattus norvegicus [21] = assay: Biodistribution in Wistar rat thyroid gland at 5 to 10 MBq, iv after 15 mins by gamma counting analysis in presence of GW405883; type: ADME, organism-based; conditions: in vivo, 0.25 h
[22] = Biodistribution in Wistar rat urine at 5 to 10 MBq, iv after 15 mins by gamma counting analysis in presence of GW405883; type: ADME, organism-based; conditions: in vivo, 0.25 h
Spleen [23] = assay: Biodistribution in Wistar rat spleen at 5 to 10 MBq, iv after 15 mins by gamma counting analysis in presence of GW405883; type: ADME, organism-based; conditions: in vivo, 0.25 h
Cortex [24] = assay: Drug uptake in LPS-treated mouse cortex at 10 to 18 MBq, iv by PET imaging analysis; type: ADME, organism-based; conditions: in vivo
Liver [25] = assay: Biodistribution in Wistar rat liver at 5 to 10 MBq, iv after 15 mins by gamma counting analysis in presence of GW405883; type: ADME, organism-based; conditions: in vivo, 0.25 h
Rattus norvegicus [26] = assay: Biodistribution in Wistar rat fat at 5 to 10 MBq, iv after 15 mins by gamma counting analysis; type: ADME, organism-based, Adipose tissue; conditions: in vivo, 0.25 h
Brain [27] = assay: Drug uptake in LPS-treated mouse whole brain at 10 to 18 MBq, iv by PET imaging analysis in presence of […]; type: ADME, organism-based; conditions: in vivo
Zone of skin [28] = assay: Biodistribution in Wistar rat skin at 5 to 10 MBq, iv after 15 mins by gamma counting analysis; type: ADME, organism-based; conditions: in vivo, 0.25 h
Brain [29] = assay: Drug uptake in LPS-treated mouse brain at 0.2 nM, iv after 5 days by PET imaging analysis in presence of GW405883 relative to control; type: ADME, organism-based; conditions: in vivo, 120 h, 0.0002 µM
Brain [30] = assay: Biodistribution in Wistar rat brain at 5 to 10 MBq, iv after 15 mins by gamma counting analysis; type: ADME, organism-based; conditions: in vivo, 0.25 h
Cortex [31] = assay: Drug uptake in LPS-treated mouse cortex at 10 to 18 MBq, iv by PET imaging analysis in presence of […]; type: ADME, organism-based; conditions: in vivo
[32] = Drug uptake in human lumbar spinal cord at 0.4 nM after 15 mins by autoradiography; type: ADME, tissue-based; conditions: 0.25 h, 0.0004 µM
Cerebellum [33] = assay: Drug uptake in LPS-treated mouse cerebellum at 10 to 18 MBq, iv by PET imaging analysis; type: ADME, organism-based; conditions: in vivo
Cerebellum [34] = assay: Drug uptake in LPS-treated mouse cerebellum at 10 to 18 MBq, iv by PET imaging analysis in presence of GW405883; type: ADME, organism-based; conditions: in vivo
[35] = Drug uptake in human cervical spinal cord at 0.4 nM after 15 mins by autoradiography; type: ADME, tissue-based; conditions: 0.25 h, 0.0004 µM
Pancreas [36] = assay: Biodistribution in Wistar rat pancreas at 5 to 10 MBq, iv after 15 mins by gamma counting analysis in presence of GW405883; type: ADME, organism-based; conditions: in vivo, 0.25 h
Liver [37] = assay: Biodistribution in Wistar rat liver at 5 to 10 MBq, iv after 15 mins by gamma counting analysis; type: ADME, organism-based; conditions: in vivo, 0.25 h
[38] = Partition coefficient, log D of the compound in n-octanol/phosphate buffer at pH 7.4 after 15 mins by shake flask method; type: physicochemical
Kidney [39] = assay: Biodistribution in Wistar rat kidneys at 5 to 10 MBq, iv after 15 mins by gamma counting analysis in presence of GW405883; type: ADME, organism-based; conditions: in vivo, 0.25 h
Kidney [40] = assay: Biodistribution in Wistar rat kidneys at 5 to 10 MBq, iv after 15 mins by gamma counting analysis; type: ADME, organism-based; conditions: in vivo, 0.25 h
Lung [41] = assay: Biodistribution in Wistar rat lung at 5 to 10 MBq, iv after 15 mins by gamma counting analysis in presence of GW405883; type: ADME, organism-based; conditions: in vivo, 0.25 h
Plasma [42] = assay: Stability in mouse plasma after 40 mins; type: ADME, cell-free
Adrenal gland [43] = assay: Biodistribution in Wistar rat adrenal gland at 5 to 10 MBq, iv after 15 mins by gamma counting analysis in presence of GW405883; type: ADME, organism-based; conditions: in vivo, 0.25 h
Rattus norvegicus [44] = assay: Biodistribution in Wistar rat testis at 5 to 10 MBq, iv after 15 mins by gamma counting analysis in presence of GW405883; type: ADME, organism-based; conditions: in vivo, 0.25 h
Plasma [45] = assay: Stability in rat plasma after 40 mins; type: ADME, cell-free
[46] = Drug metabolism in Wistar rat plasma assessed as parent compound remaining at 115 to 163 MBq, iv after 5 mins; type: ADME, organism-based; conditions: read-out: Stability
Spleen [47] = assay: Biodistribution in Wistar rat spleen at 5 to 10 MBq, iv after 15 mins by gamma counting analysis; type: ADME, organism-based; conditions: in vivo, 0.25 h
[48] = Drug metabolism in Wistar rat spleen assessed as parent compound remaining at 115 to 163 MBq, iv after 20 mins; type: ADME, organism-based; conditions: read-out: Stability
Heart [49] = assay: Biodistribution in Wistar rat heart at 5 to 10 MBq, iv after 15 mins by gamma counting analysis in presence of GW405883; type: ADME, organism-based; conditions: in vivo, 0.25 h
Spleen [50] = assay: Biodistribution in Wistar rat spleen at 5 to 10 MBq, iv after 15 mins by gamma counting analysis in presence of GW405883 relative to control; type: ADME, organism-based; conditions: in vivo, 0.25 h
Brain [51] = assay: Drug uptake in LPS-treated mouse brain at 0.2 nM, iv after 5 days by PET imaging analysis relative to vehicle-treated control; type: ADME, organism-based; conditions: in vivo, 120 h, 0.0002 µM
Muscle tissue [52] = assay: Biodistribution in Wistar rat muscle at 5 to 10 MBq, iv after 15 mins by gamma counting analysis; type: ADME, organism-based; conditions: in vivo, 0.25 h
Brain [53] = assay: Biodistribution in Wistar rat brain at 5 to 10 MBq, iv after 15 mins by gamma counting analysis in presence of GW405883; type: ADME, organism-based; conditions: in vivo, 0.25 h
Zone of skin [54] = assay: Biodistribution in Wistar rat skin at 5 to 10 MBq, iv after 15 mins by gamma counting analysis in presence of GW405883; type: ADME, organism-based; conditions: in vivo, 0.25 h
[55] = Drug metabolism in Wistar rat plasma assessed as parent compound remaining at 115 to 163 MBq, iv after 20 mins; type: ADME, organism-based; conditions: read-out: Stability
Cannabinoid receptor 1 = Cannabinoid receptor 1 (Homo sapiens, UniProt P21554); assay: Displacement of [3H]-CP-55940 from human CB1 receptor transfected in CHOK1 cells after 90 mins by liquid scintillation counting analysis; type: cell-based, CHO-K1
Cannabinoid receptor 1, sequence (P21554 whole entry): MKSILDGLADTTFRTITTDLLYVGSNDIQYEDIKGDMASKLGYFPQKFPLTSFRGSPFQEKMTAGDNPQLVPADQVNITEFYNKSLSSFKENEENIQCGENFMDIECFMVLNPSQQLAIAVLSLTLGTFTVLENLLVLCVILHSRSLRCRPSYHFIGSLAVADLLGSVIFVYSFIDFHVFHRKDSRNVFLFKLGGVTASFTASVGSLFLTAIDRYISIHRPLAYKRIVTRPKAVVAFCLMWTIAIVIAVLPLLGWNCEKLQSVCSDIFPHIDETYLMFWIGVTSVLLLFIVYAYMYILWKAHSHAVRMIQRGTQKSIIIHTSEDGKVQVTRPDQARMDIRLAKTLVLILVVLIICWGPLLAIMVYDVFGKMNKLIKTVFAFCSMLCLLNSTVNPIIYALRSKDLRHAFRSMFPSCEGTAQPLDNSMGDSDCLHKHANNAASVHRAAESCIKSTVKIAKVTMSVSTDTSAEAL

CCOCCn1cc(C(=O)NC23CC4CC(CC(C4)C2)C3)c(=O)c2cccc(O[11CH3])c21
Drug uptake [1]: 0.06 % ID/g | Drug uptake (Rattus norvegicus [2]): 0.053 % ID/g | remaining at 10 min [3]: 55% | Drug uptake (Rattus norvegicus [4]): 0.033 % ID/g | Drug uptake (Bone [5]): 0.039 % ID/g | Drug uptake (Lung [6]): 0.088 % ID/g | Drug uptake (Hippocampus [7]): Active | Drug uptake (Heart [8]): 0.08 % ID/g | Drug uptake (Blood [9]): 0.03 % ID/g | Drug uptake (Muscle tissue [10]): 0.071 % ID/g | Drug uptake (Brain [11]): Active | Drug uptake (Adrenal gland [12]): 0.216 % ID/g | Drug uptake (Small intestine [13]): 0.924 % ID/g | Drug uptake (Rattus norvegicus [14]): 0.077 % ID/g | Drug uptake (Blood [15]): 0.044 % ID/g | Drug uptake (Hippocampus [16]): Not Active | Stability (Plasma [17]): Stable | Drug uptake (Pancreas [18]): 0.11 % ID/g | Drug uptake (Bone [19]): 0.046 % ID/g | Drug uptake (Small intestine [20]): 0.425 % ID/g | Drug uptake (Rattus norvegicus [21]): 0.064 % ID/g | Drug uptake [22]: 0.08 % ID/g | Drug uptake (Spleen [23]): 0.062 % ID/g | Drug uptake (Cortex [24]): Active | Drug uptake (Liver [25]): 0.38 % ID/g | Drug uptake (Rattus norvegicus [26]): 0.05 % ID/g | Drug uptake (Brain [27]): Not Active | Drug uptake (Zone of skin [28]): 0.05 % ID/g | Drug uptake (Brain [29]): Not Active | Drug uptake (Brain [30]): 0.025 % ID/g | Drug uptake (Cortex [31]): Not Active | Drug uptake [32]: Active | Drug uptake (Cerebellum [33]): Active | Drug uptake (Cerebellum [34]): Not Active | Drug uptake [35]: Active | Drug uptake (Pancreas [36]): 0.113 % ID/g | Drug uptake (Liver [37]): 0.505 % ID/g | logD at 0.25 h [38]: 2.78 | Drug uptake (Kidney [39]): 0.134 % ID/g | Drug uptake (Kidney [40]): 0.122 % ID/g | Drug uptake (Lung [41]): 0.075 % ID/g | Stability (Plasma [42]): Stable | Drug uptake (Adrenal gland [43]): 0.262 % ID/g | Drug uptake (Rattus norvegicus [44]): 0.034 % ID/g | Stability (Plasma [45]): Stable | remaining at 5 min [46]: 72% | Drug uptake (Spleen [47]): 0.284 % ID/g | remaining at 20 min [48]: 81% | Drug uptake (Heart [49]): 0.091 % ID/g | Drug uptake (Spleen [50]): 78% | Drug uptake (Brain [51]): Active | Drug uptake (Muscle tissue [52]): 0.065 % ID/g | Drug uptake (Brain [53]): 0.028 % ID/g | Drug uptake (Zone of skin [54]): 0.057 % ID/g | remaining at 20 min [55]: 47%

CCCCn1cc(C(=O)NC23CC4CC(CC(C4)C2)C3)c(=O)c2cccc(OC)c21
Ki (Cannabinoid receptor 1): > 10 µM

COc1cccc2c(=O)c(C(=O)NC(C)(C)C)cn(CCCF)c12
Ki (Cannabinoid receptor 1): > 10 µM
